Values of other authors, collected in patent US20100016828A1, “Drug Delivery System and Method” (priority 1995, published 2010).
Blank lines part the entries; values can stand above or below the compound they belong to.

Tests used:
[1] = intrathecal administration; at 1 hour
blood-brain barrier = conditions: hyperosmolar saturated solution of 25% mannitol, intra-arterial infusion for approximately 30 seconds
[2] = cat brain

- depth of penetration into parenchymal tissue [1]: 3.2 mm
Compound: CN(Cc1cnc2nc(N)nc(N)c2n1)c1ccc(C(=O)N[C@@H](CCC(=O)O)C(=O)O)cc1 [methotrexate]

Compound: OC[C@@H](O)[C@@H](O)[C@H](O)[C@H](O)CO [mannitol]
- period of nonselective entry of substances into the CNS and tumor after blood-brain barrier disruption (blood-brain barrier): approximately 30 minutes

- HpD uptake relative to normal brain tissue (glioblastomas): 30 times
- HpD uptake relative to normal tissue (low-grade tumors): 8 times
Compound: hematoporphyrin derivative [HpD]

- spread in an anterior-posterior direction ([2]; two hour infusions, immediately after completion of the infusion): ≈ 2.0 cm
Compound: OC[C@H]1O[C@@](CO)(O[C@H]2O[C@H](CO)[C@@H](O)[C@H](O)[C@H]2O)[C@@H](O)[C@@H]1O [sucrose]
- distribution into gray matter ([2]; after interstitial infusion): extensively distributed into gray matter by two hours
